Molecular target: His-tagged recombinant human TrkA (Homo sapiens (Human), UniProt P04629)
Experiment: TrkA LanthaScreen Eu Kinase Binding Assay
Conditions: averaged IC50; TR-FRET binding, 60 min, 22° C.; read-out: TrkA Enzyme IC50
Method: TrkA binding activity was determined in a TrkA LanthaScreen™ Eu Kinase Binding Assay. 5 nM His-tagged recombinant human TrkA (6HIS tagged cytoplasmic domain from Invitrogen, Catalog No. PV3144) was incubated with 4 nM Alexa-Fluor® Tracer 236 (Invitrogen Cat. No. PV5592), 2 nM biotinylated anti-His (Invitrogen Cat. No. PV6090), and 2 nM europium-labeled Streptavidin (Invitrogen Cat. No. PV5899), in buffer (25 mM MOPS, pH 7.5, 5 mM MgCl2, 0.005% Triton X-100). Three fold serial dilutions of compounds of the invention in DMSO were added to a final percentage of 2% DMSO. After 60-minute incubation at 22° C., the reaction was measured using the EnVision mutlimode plate reader (PerkinElmer) via TR-FRET dual wavelength detection at […]. The percent of control was calculated using a ratiometric emission factor. The IC50 values were determined by fitting a four parameter model to the percent of control data.

His-tagged recombinant human TrkA, sequence (P04629 440-796): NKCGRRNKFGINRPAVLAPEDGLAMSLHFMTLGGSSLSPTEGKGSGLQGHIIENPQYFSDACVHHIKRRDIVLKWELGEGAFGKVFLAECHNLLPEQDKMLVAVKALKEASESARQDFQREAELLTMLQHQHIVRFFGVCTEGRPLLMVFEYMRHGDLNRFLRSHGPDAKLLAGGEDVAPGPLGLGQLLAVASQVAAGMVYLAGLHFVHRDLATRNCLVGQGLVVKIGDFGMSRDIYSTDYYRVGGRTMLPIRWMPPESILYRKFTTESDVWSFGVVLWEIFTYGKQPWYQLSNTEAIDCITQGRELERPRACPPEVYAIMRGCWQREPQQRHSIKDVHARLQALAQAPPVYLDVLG

Structure (SMILES) | IC50 [nM]
COc1nn(-c2ccccc2)c(NC(=O)N[C@@H]2c3ccccc3OC3(CCC3)[C@H]2O)c1C (relative stereo) [Example 159, 1-(trans-3-hydroxyspiro[chroman-2,1′-cyclobutan]-4-yl)-3-(3-methoxy-4-methyl-1-phenyl-1H-pyrazol-5-yl)urea] | < 100
Cc1c(-c2cnn(C)c2)nn(-c2ccccc2)c1NC(=O)N[C@H]1c2ccccc2C2(CC2)[C@@H]1O (stereo in doubt) [Example 138, 1-(1′,4-dimethyl-1-phenyl-1H,1′H-[3,4′-bipyrazol]-5-yl)-3-((2′S,3′S)-2′-hydroxy-2′,3′-dihydrospiro[cyclopropane-1,1′-inden]-3′-yl)urea] | 100 to 1000
O=C(Nc1c2c(nn1-c1ccccc1)CCC2)N[C@H]1CCCc2ccccc21 [Example 3, (S)-1-(2-phenyl-2,4,5,6-tetrahydrocyclopenta[c]pyrazol-3-yl)-3-(1,2,3,4-tetrahydronaphthalen-1-yl)urea] | < 100
Cc1c(-c2cnn(C)c2)nn(-c2ccccc2)c1NC(=O)NC1COCc2ccccc21 (centres unmarked) [Example 8, 1-(1′,4-dimethyl-1-phenyl-1H,1′H-3,4′-bipyrazol-5-yl)-3-(isochroman-4-yl)urea] | 100 to 1000
Cc1c(-c2cnn(C)c2)nn(-c2ccccc2)c1NC(=O)NC1CC(C)(C)Oc2ccccc21 (centres unmarked) [Example 9, 1-(1′,4-dimethyl-1-phenyl-1H,1′H-3,4′-bipyrazol-5-yl)-3-(2,2-dimethylchroman-4-yl)urea] | 100 to 1000
COCCN1CCc2ccccc2C(NC(=O)Nc2c(C)c(-c3cnn(C)c3)nn2-c2ccccc2)C1 (centres unmarked) [Example 17, 1-(1′,4-dimethyl-1-phenyl-1H,1′H-3,4′-bipyrazol-5-yl)-3-(3-(2-methoxyethyl)-2,3,4,5-tetrahydro-1H-benzo[d]azepin-1-yl)urea] | 100 to 1000
Cc1c(-c2cnn(C)c2)nn(-c2ccccc2)c1NC(=O)NC1CN(CC(F)(F)F)CCc2ccccc21 (centres unmarked) [Example 18, 1-(1′,4-dimethyl-1-phenyl-1H,1′H-3,4′-bipyrazol-5-yl)-3-(3-(2,2,2-trifluoroethyl)-2,3,4,5-tetrahydro-1H-benzo[d]azepin-1-yl)urea] | 100 to 1000
CC(=O)N1CCc2ccccc2C(NC(=O)Nc2c(C)c(-c3cnn(C)c3)nn2-c2ccccc2)C1 (centres unmarked) [Example 19, 1-(3-acetyl-2,3,4,5-tetrahydro-1H-benzo[d]azepin-1-yl)-3-(1′,4-dimethyl-1-phenyl-1H,1′H-3,4′-bipyrazol-5-yl)urea] | 100 to 1000
CCN1Cc2ccccc2C(NC(=O)Nc2c3c(nn2-c2ccccc2)CCC3)C1 (centres unmarked) [Example 22, 1-(2-ethyl-1,2,3,4-tetrahydroisoquinolin-4-yl)-3-(2-phenyl-2,4,5,6-tetrahydrocyclopenta[c]pyrazol-3-yl)urea] | 100 to 1000
COCCN1Cc2ccccc2C(NC(=O)Nc2c3c(nn2-c2ccccc2)CCC3)C1 (centres unmarked) [Example 23, 1-(2-(2-methoxyethyl)-1,2,3,4-tetrahydroisoquinolin-4-yl)-3-(2-phenyl-2,4,5,6-tetrahydrocyclopenta[c]pyrazol-3-yl)urea] | 100 to 1000
CC(=O)N1Cc2ccccc2C(NC(=O)Nc2c3c(nn2-c2ccccc2)CCC3)C1 (centres unmarked) [Example 24, 1-(2-acetyl-1,2,3,4-tetrahydroisoquinolin-4-yl)-3-(2-phenyl-2,4,5,6-tetrahydrocyclopenta[c]pyrazol-3-yl)urea] | 100 to 1000
Cc1c(-c2cn(C)cn2)nn(-c2ccccc2)c1NC(=O)NC1CN(CC(F)(F)F)Cc2ccccc21 (centres unmarked) [Example 27, 1-(4-methyl-3-(1-methyl-1H-imidazol-4-yl)-1-phenyl-1H-pyrazol-5-yl)-3-(2-(2,2,2-trifluoroethyl)-1,2,3,4-tetrahydroisoquinolin-4-yl)urea] | < 100
Cc1c(NC(=O)NC2CN(CC(F)(F)F)Cc3ccccc32)n(-c2ccccc2)[nH]c1=O (centres unmarked) [Example 30, 1-(4-methyl-5-oxo-2-phenyl-2,5-dihydro-1H-pyrazol-3-yl)-3-(2-(2,2,2-trifluoroethyl)-1,2,3,4-tetrahydroisoquinolin-4-yl)urea] | < 100
Cc1c(-c2cnn(C)c2)nn(-c2ccccc2)c1NC(=O)NC1CC(C2CC2)Oc2ccc(Br)cc21 (centres unmarked) [Example 33, 1-(6-bromo-2-cyclopropylchroman-4-yl)-3-(1′,4-dimethyl-1-phenyl-1H,1′H-[3,4′-bipyrazo]-5-yl)urea] | < 100

The remaining lines, values ahead:

IC50 [nM] | Structure (SMILES)
< 100 | Cc1c(-c2cnn(C)c2)nn(-c2ccccc2)c1NC(=O)N[C@@H]1c2ccccc2OC2(CCC2)[C@H]1O (relative stereo) [Example 160, 1-(1′,4-dimethyl-1-phenyl-1H,1′H-[3,4′-bipyrazol]-5-yl)-3-(trans-3-hydroxyspiro[chroman-2,1′-cyclobutan]-4-yl)urea]
< 100 | Cc1c(-c2cnn(C)c2)nn(-c2ccccc2)c1NC(=O)NC1CCCc2ccccc21 (centres unmarked) [Example 1, 1-(1′,4-dimethyl-1-phenyl-1H,1′H-3,4′-bipyrazol-5-yl)-3-(1,2,3,4-tetrahydronaphthalen-1-yl)urea]
100 to 1000 | Cc1c(-c2cnn(C)c2)nn(-c2ccccc2)c1NC(=O)N[C@@H]1CCCc2ccccc21 [Example 4, (R)-1-(1′,4-dimethyl-1-phenyl-1H,1′H-3,4′-bipyrazol-5-yl)-3-(1,2,3,4-tetrahydronaphthalen-1-yl)urea]
100 to 1000 | COc1ccc2c(c1)CCCC2NC(=O)Nc1c(C)c(-c2cnn(C)c2)nn1-c1ccccc1 (centres unmarked) [Example 5, 1-(1′,4-dimethyl-1-phenyl-1H,1′H-3,4′-bipyrazol-5-yl)-3-(6-methoxy-1,2,3,4-tetrahydronaphthalen-1-yl)urea]
< 100 | Cc1c(-c2cnn(C)c2)nn(-c2ccccc2)c1NC(=O)NC1CCCCc2ccccc21 (centres unmarked) [Example 6, 1-(1′,4-dimethyl-1-phenyl-1H,1′H-3,4′-bipyrazol-5-yl)-3-(6,7,8,9-tetrahydro-5H-benzo[7]annulen-5-yl)urea]
100 to 1000 | Cc1c(-c2cnn(C)c2)nn(-c2ccccc2)c1NC(=O)NC1CCOc2ccccc21 (centres unmarked) [Example 7, 1-(chroman-4-yl)-3-(1′,4-dimethyl-1-phenyl-1H,1′H-3,4′-bipyrazol-5-yl)urea]
< 100 | Cc1c(-c2cnn(C)c2)nn(-c2ccccc2)c1NC(=O)NC1COCc2ccc(Br)cc21 (centres unmarked) [Example 10, 1-(6-bromoisochroman-4-yl)-3-(1′,4-dimethyl-1-phenyl-1H,1′H-[3,4′-bipyrazol]-5-yl)urea]
< 100 | Cc1nn(-c2ccccc2)c(NC(=O)N[C@H]2CCCc3ccccc32)c1Br [Example 11, (S)-1-(4-bromo-3-methyl-1-phenyl-1H-pyrazol-5-yl)-3-(1,2,3,4-tetrahydronaphthalen-1-yl)urea]
100 to 1000 | CCOc1nn(-c2ccccc2)c(NC(=O)NC2CCOc3cc(F)ccc32)c1C (centres unmarked) [Example 13, 1-(3-ethoxy-4-methyl-1-phenyl-1H-pyrazol-5-yl)-3-(7-fluorochroman-4-yl)urea]
100 to 1000 | Cc1c(-c2cnn(C)c2)nn(-c2ccccc2)c1NC(=O)NC1CC(C)Oc2ccc(F)cc21 (centres unmarked) [Example 14, 1-(1′,4-dimethyl-1-phenyl-1H,1′H-[3,4′-bipyrazol]-5-yl)-3-(6-fluoro-2-methylchroman-4-yl)urea]
< 100 | Cc1c(-c2cnn(C)c2)nn(-c2ccccc2)c1NC(=O)NC1CCCc2ccc(Br)cc21 (centres unmarked) [Example 15, 1-(7-bromo-1,2,3,4-tetrahydronaphthalen-1-yl)-3-(1′,4-dimethyl-1-phenyl-1H,1′H-[3,4′-bipyrazol]-5-yl)urea]
< 100 | Cc1c(-c2cnn(C)c2)nn(-c2ccccc2)c1NC(=O)NC1CCC(C)(C)c2ccc(Br)cc21 (centres unmarked) [Example 16, 1-(7-bromo-4,4-dimethyl-1,2,3,4-tetrahydronaphthalen-1-yl)-3-(1′,4-dimethyl-1-phenyl-1H,1′H-[3,4′-bipyrazol]-5-yl)urea]
100 to 1000 | CCC(=O)N1CCc2ccccc2C(NC(=O)Nc2c(C)c(-c3cnn(C)c3)nn2-c2ccccc2)C1 (centres unmarked) [Example 20, 1-(1′,4-dimethyl-1-phenyl-1H,1′H-3,4′-bipyrazol-5-yl)-3-(3-propionyl-2,3,4,5-tetrahydro-1H-benzo[d]azepin-1-yl)urea]
100 to 1000 | CCCN1CCc2ccccc2C(NC(=O)Nc2c(C)c(-c3cnn(C)c3)nn2-c2ccccc2)C1 (centres unmarked) [Example 21]
< 100 | Cc1c(-c2cnn(C)c2)nn(-c2ccccc2)c1NC(=O)NC1CN(CC(F)(F)F)Cc2ccccc21 (centres unmarked) [Example 25, 1-(1′,4-dimethyl-1-phenyl-1H,1′H-3,4′-bipyrazol-5-yl)-3-(2-(2,2,2-trifluoroethyl)-1,2,3,4-tetrahydroisoquinolin-4-yl)urea]
< 100 | O=C(Nc1c2c(nn1-c1ccccc1)CCC2)NC1CN(CC(F)(F)F)Cc2ccccc21 (centres unmarked) [Example 28, 1-(2-phenyl-2,4,5,6-tetrahydrocyclopenta[c]pyrazol-3-yl)-3-(2-(2,2,2-trifluoroethyl)-1,2,3,4-tetrahydroisoquinolin-4-yl)urea]
< 100 | CNC(=O)c1nn(-c2ccccc2)c(NC(=O)NC2CN(CC(F)(F)F)Cc3ccccc32)c1C (centres unmarked) [Example 29, N,4-dimethyl-1-phenyl-5-(3-(2-(2,2,2-trifluoroethyl)-1,2,3,4-tetrahydroisoquinolin-4-yl)ureido)-1H-pyrazole-3-carboxamide]
< 100 | Cc1nn(-c2ccccc2)c(NC(=O)NC2CN(CC(F)(F)F)Cc3ccccc32)c1C(N)=O (centres unmarked) [Example 31, 3-methyl-1-phenyl-5-(3-(2-(2,2,2-trifluoroethyl)-1,2,3,4-tetrahydroisoquinolin-4-yl)ureido)-1H-pyrazole-4-carboxamide]
